Measurements as given in patent US20110009332A1, “Therapeutic Treatment Of Wounds” (SOUTHWEST RESEARCH INSTITUTE, priority 2009, published 2011).
Where “and” joins values, the source holds several entries; their conditions need not be identical. Equal entries are not always repeated. Entries after “also recorded” stand apart in the source; their conditions may differ. Where a SMILES comes first, the peptide text is derived from it. The star is where a group is joined. Cbz = O=C(OCc1ccccc1)*; OtBu = CC(C)(C)O*

Tests used:
[1] = system: TGF-β1 protein expression in human dermal fibroblast cells; assay: TGF-β1 protein expression in normal and PMA-challenged human dermal fibroblasts; format: cell-based; conditions: PS-1 0 nM to 10000 nM
Procedure: Cyto-toxicity analysis was performed to illustrate the inhibition of TGF-131 in human dermal fibroblasts. Both normal human dermal fibroblast cells (i.e., undamaged or non-wounded skin cells) and challenged (damaged) human dermal fibroblast cells were treated with concentrations of PS-1 ranging from 0 nM to 10000 nM and the effect of the various PS-1 concentrations on the normal and challenged cells was measured. It is noted that the challenged human dermal fibroblast cells were treated in vitro with 10 nM of phorbol 12-myristate 13-acetate (PMA) to simulate wounding. […] FIG. 11 illustrates TGF-131 protein expression upon addition of PS-1 in cells challenged by the addition of the 10 nM of PMA.

rat skin = assay: Tensile strength of rat skin after 28 days of treatment (Example 2); format: in vivo, rats; design: Tensile strength of rat skin, Mean: unit not given here; conditions: for Tensile strength of rat skin, individual samples: 100 μl per wound site daily for 5 days, samples 1-5, in N/mm²; for Tensile strength of rat skin, individual samples / Tensile strength of rat skin, Mean: after 28 days; for Tensile strength of rat skin, Mean: control mean 3.12114
Procedure: Testing of PS-1 was performed in rats and was provided at 1% and 5% in DMSO. The rats received 100 μl per wound site. The compound was administered daily for 5 days and skin was collected at 7 days, 14 days and 28 days. The biomechanical tensile strength of the skin was measured. Table 2 illustrates the testing data after 28 days for a control sample without treatment, 1% PS-1 in DMSO and 5% PS-1 in DMSO.

[2] = system: incisional wounds of Sprague-Dawley rats; assay: Incisional wound healing model: histology; format: in vivo; conditions: for Overall Dermal Collagen Response: histology score; for wounds presenting with some degree of epithelial hyperplasia: control rats 60%
Text: Using a standard incisional wound healing model, two 6 cm linear incisions were made through the panniculus carnosum on the dorsal aspect of 10 to 12 week old male Sprague-Dawley rats 1 centimeter on either side of midline running cephalid to caudal using a prefabricated template. Three surgical clips were used to close the incision and serve as guides for sectioning on harvest day.
Rats were randomly assigned to 1 of 3 treatment groups, indentified by the treatment administered to the wound located on the left. All wounds located on the right, regardless of treatment group, received vehicle (100% DMSO) as a control. […] Treatment was administered by applying 100 micro liters into (at time of closure) or onto the wound every 24 hours for the first 48 hours beginning at the time of wound closure, totaling 3 doses per wound.
On days 7, 14 and 28 post-wounding, the rats were euthanized and the entire dorsal skin excised. Four 8 mm sample strips were cut perpendicular to the wounds, to incorporate both the treated wound and the adjacent vehicle wound. The sample strips were then cut in half, equidistance from the two parallel wounds, yielding a total of four samples per wound, and yielding a compliment vehicle wound for each treated sample. One cephalic and one caudle sample were immediately prepared for histology, with the remaining two strips immediately prepared for tensometry.
Histological samples were fixed in 10% formalin, routinely processed, embedded in paraffin, and sectioned at approximately 5 μm. Cross sections of skin were stained with hematoxylin and eosin (H&E) and Masson's Trichrome using routine methods. All slides were subjectively evaluated on an Olympus BX40 microscope (Olympus America, Center Valley, Pa.) by a board-certified veterinary pathologist blinded to the treatment groups. The following parameters were determined for each sample: (1) collagen density (0=no mature collagen, 1=loose, 2=intermediate, 3=dense); (2) collagen maturity (1=immature, 2=intermediate, 3=mature); (3) amount and type of inflammation present in the dermis (0=none, 1=minimal, 2=mild, 3=moderate, 4=severe); (4) epithelial hyperplasia (0=none, 1=minimal, 2=mild, 3=moderate, 4=severe); (5) amount of epidermal necrosis over wound (0=0%, 1=25%, 2=50%, 3=75%, 4=100). Images were captured using an Olympus BX41 microscope (Olympus America, Center Valley, Pa.) and an Olympus DP71 digital camera (Olympus America, Center Valley, Pa.). Captured images of Masson's Trichrome sections under a 4× objective were uploaded into ImageJ (NIH) in order to calculate the cross sectional area of immature collagen within day 28 wounds. For statistical purposes, samples were averaged to provide a single score in each parameter per wound.
A paired student's t-test was used for statistical comparisons between adjacent wounds. A tukey's comparison was used for statistical comparison of wounds between different rats. A Kruskal-Wallis test was used for comparing graded histology. A Chi square was used to determine statistical meaning of epithelial necrosis.

EFT400-Epidermis = assay: Skin thickness upon addition of PS-1 (EPIDERMFT EFT-400 tissue samples, in vitro); format: cell-based; conditions: for EFT400-Epidermis thickness, Trial 1: control 61; for EFT400-Epidermis thickness, Trial 3: control 66.22; for EFT400-Epidermis thickness, Trial 2: control 73.73
Procedure: Tissue samples were received and equilibrated for treatment. Media was retained for enzyme-linked immunosorbent assay (ELISA) using an EPIDERMFT kit, product number EFT-400. On the second day, PS-1 treatment was added to the samples, wherein the media was exchanged with compound in 4 ml. More specifically, three samples were maintained as control samples and included DMSO at a concentration of 62 μm/10 ml, with no added PS-1 treatment, 0.1 μM (0.620/10 ml) was added to three samples, 1 μM (0.620/10 ml) was added to three samples, and 10 μM (0.620/10 ml) was added to three samples.
The samples were left to incubate on days 3-5 and on day 6, the media was exchanged again. On the seventh day, tissue samples were removed and conditioned media was saved for ELISA. The samples were then measured using […].
FIG. 2 illustrates changes in the epidermis thickness versus the amount of PS-1 added to the assays and the supporting data is presented in Table 1 below. […] FIGS. 3 through 5 illustrate the difference in thickness as between the control samples and the 10 μl/ml samples at 10× magnification and 40× magnification.

CC[C@H](C)[C@H](NC(=O)OCc1ccccc1)C(=O)N[C@@H](CCC(=O)OC(C)(C)C)C(=O)N[C@@H](C)C(=O)N[C@H](C=O)CC(C)C [PS-1, Z-Ile-Glu(OBu^t)-Ala-Leu-H] (Cbz-IE(OtBu)AL-aldehyde)
TGF-β1 protein expression (in words) ([1]; cells challenged with 10 nM PMA, FIG. 11): reduced TGF-β1 protein expression to similar levels seen in normal cells
TGF-β1 protein expression (in words) ([1]; normal human dermal fibroblast cells, FIG. 10): relatively little change in TGF-β1 protein expression
Tensile strength of rat skin, individual samples (rat skin; 1% PS-1 in DMSO): 3.707 and 3.47 and 3.655 and 4.169 and 4.476
Tensile strength of rat skin, Mean (rat skin; 1% PS-1 in DMSO): 3.895
Tensile strength of rat skin, individual samples (rat skin; 5% PS-1 in DMSO): 4.067 and 4.379 and 3.805 and 5.042 and 5.192
strength of rat skin tissue (in words) (rat skin; 5% PS-1 in DMSO, 28 days, FIG. 6): relatively stronger tissue
Tensile strength of rat skin, Mean (rat skin; 5% PS-1 in DMSO): 4.497
Overall Dermal Collagen Response ([2]; PS-1 1% treated wounds, Day 7, control 0.8 ± 0.3): 0.8 ± 0.3
Overall Dermal Collagen Response ([2]; PS-1 1% treated wounds, Day 14, control 1.9 ± 0.3): 2.1 ± 0.3
Overall Dermal Collagen Response ([2]; PS-1 1% treated wounds, Day 28, control 2.6 ± 0.5): 2.9 ± 0.3
Overall Dermal Collagen Response ([2]; PS-1 5% treated wounds, Day 7, control 0.8 ± 0.3): 0.7 ± 0.3
Overall Dermal Collagen Response ([2]; PS-1 5% treated wounds, Day 14, control 1.9 ± 0.3): 2.0 ± 0.0
Overall Dermal Collagen Response ([2]; PS-1 5% treated wounds, Day 28, control 2.6 ± 0.5): 2.8 ± 0.3
accumulation of neutrophils in the dermis (in words) ([2]; day 14, most notable in rats receiving 1% PI): nearly extinct
wounds presenting with some degree of epithelial hyperplasia ([2]; day 28, 1% PI rats): 8 % of wounds
wounds presenting with some degree of epithelial hyperplasia ([2]; day 28, 5% PI rats): 20 % of wounds
macrophage and lymphocyte accumulates (in words) ([2]; day 28, most notably low dose rat wounds, FIG. 20): continued to decline
histology finding in the subcutaneous tissue beneath the panniculus carnosum (in words) ([2]; wounds receiving direct administration of the PI, seemingly dose dependent): foreign body reaction
EFT400-Epidermis thickness, Trial 1 (EFT400-Epidermis; 0.1 μM PS-1): 69.47 microns
EFT400-Epidermis thickness, Trial 3 (EFT400-Epidermis; 0.1 μM PS-1): 78.82 microns
EFT400-Epidermis thickness, Trial 2 (EFT400-Epidermis; 0.1 μM PS-1): 61.85 microns
EFT400-Epidermis thickness, Trial 1 (EFT400-Epidermis; 1 μM PS-1): 59.13 microns
EFT400-Epidermis thickness, Trial 3 (EFT400-Epidermis; 1 μM PS-1): 61.6 microns
EFT400-Epidermis thickness, Trial 2 (EFT400-Epidermis; 1 μM PS-1): 54.09 microns
EFT400-Epidermis thickness, Trial 1 (EFT400-Epidermis; 10 μM PS-1): 106.31 microns
EFT400-Epidermis thickness, Trial 3 (EFT400-Epidermis; 10 μM PS-1): 100.16 microns
EFT400-Epidermis thickness, Trial 2 (EFT400-Epidermis; 10 μM PS-1): 96.2 microns
thickness of the resultant epidermis in vitro (in words) (EFT400-Epidermis; addition of 10 μm, compared with the other samples): relatively significant increase in the thickness
stratum granulosum formation (in words) (EFT400-Epidermis; treated samples vs control samples, FIGS. 3-5): relatively well formed stratum granulosum; also recorded: relatively better developed stratum granulosum
